In patent US10154974B1, “Use of abscisic acid for the prevention and treatment of malaria” (The Regents of the University of California, priority 2015, dated 2018):
Several values for one entry are separate records, joined by “and”; a condition that tells them apart may be missing. Identical values can stand only once.

Assays:
[1] = test system: P. falciparum; experiment: P. falciparum infection of A. stephensi fed a supplemented infected bloodmeal; type: in vivo; settings: for reduction of infection prevalence in A. stephensi: relative to control
Method: For P. falciparum infections A. stephensi were fed on a 1:1 ratio of P. falciparum-infected RBCs containing a treatment or diluent control and provided in a Hemotek Insect Feeding System (Discovery Workshops). ABA was eluted in 100% ethanol and stored at −20 C for up to 6 months. ABA stock was diluted with PBS and added into blood immediately before feeding for final concentrations of 10 nM and 100 nM. For L-NAME feeds mosquitoes were maintained on sugar cubes and water pads containing 1 mg/mL L-NAME for 72 hours before the feed and throughout the course of infection. Infection prevalence data were analyzed by Fisher's Exact Test. Oocyst intensities were analyzed by Mann-Whitney test.

[2] = test system: P. falciparum; experiment: Pfs16 and Pfs25 expression in parasite-fed mosquito midguts (parasite death); type: in vivo; settings: between 18 and 24 hours post-bloodmeal
Method: Expression levels are shown of P. falciparum genes Pfs16 and Pfs25 in ABA-supplemented parasite-fed mosquito midguts. Data are normalized to mosquito and parasite ribosomal genes s7 and A18s. Each dot represents one replicate of 10 pooled midguts. Data are shown as fold change relative to control and were analyzed by one sample t-test. * p<0.05.

[3] = test system: MAPK (erk, jnk, p38); experiment: MAPK phosphorylation in mosquito midgut; type: in vivo, Anopheles stephensi; settings: 0 to 4 hours
[4] = test system: Anopheles stephensi; experiment: Mosquito lifespan with weekly ABA-supplemented bloodmeals; type: in vivo
Method: Median survival of control and ABA-treated mosquitoes from five lifespans in which mosquitoes received a weekly control or ABA-supplemented uninfected bloodmeal. Each lifespan was conducted with 300 female mosquitoes per treatment. Data were analyzed by Wilcoxon matched-pairs signed rank test.
FIG. 17A is a survival curve of mosquitoes provided weekly control or ABA-supplemented uninfected bloodmeals and maintained on 3% sucrose solution. FIG. 17B is a survival curve of P. falciparum-infected mosquitoes provided control or ABA-supplemented weekly bloodmeals. Infection status was determined by detection of PfCOX in individual mosquitoes by qRT-PCR. Data were analyzed by log-rank test and Gehan-Breslow-Wilcoxon test.

[5] = test system: P. yoelii 17XNL; experiment: P. yoelii 17XNL parasitemia in C57Bl/6 and casp1-/- mice; type: in vivo
Method: Daily parasitemia of three separate cohorts of mice with and without ABA supplementation. 3 to 5 mice were used per treatment in each infection. Data were analyzed by one-sided, unpaired t-test. # p<0.1, * p<0.05, ** p<0.005.
FIG. 28A-B illustrate that ABA has no effect on parasitemia in caspase-1 knockout mice. […] 4-5 mice were used per treatment group. Data were analyzed by unpaired t-test. # p<0.1 * p<0.05.

[6] = Small animal chemistry panel of plasma; type: in vivo, mice
Method: (§1) FIG. 19A-C through FIG. 28A-B and Tables 6-1 through 6-4 support the use of ABA for treating Plasmodium-infected mammalian subjects. In the following tables, 4-5 mice were used per treatment, and data were analyzed by unpaired t-test. […] Abbreviations for Tables 6-3 and 6-4 are as follows: WBC=white blood cells, RBCs=red blood cells, MCV=mean corpuscular volume, MCH=mean corpuscular hemoglobin, MCHC=mean corpuscular hemoglobin concentration, RDW=red blood cell distribution width, MPV=mean platelet volume.

[7] = Complete blood counts; type: in vivo, mice
Method: as §1

[8] = test system: parasite-specific IgG and IgG1; experiment: Western blot of infected RBC protein probed with mouse plasma; type: in vivo; settings: P. yoelii-infected mice
Text: FIG. 26A-C illustrate that ABA-supplementation increased levels of parasite-specific IgG and IgG1 in mouse plasma. Shown are western blots of protein from uninfected and P. yoelii-infected RBCs probed with plasma from uninfected, P. yoelii-infected, ABA-supplemented P. yoelii-infected mice followed by IgG1 (FIG. 26A) and total IgG (FIG. 26B) secondary antibodies. Also shown is a densitometry analysis (FIG. 26C) of IgG1- and total IgG-bound protein from infected RBCs. Data are shown as fold change between control P. yoelii and ABA-supplemented P. yoelii plasma.

[9] = test system: inflammatory bowel disease (IBD); settings: ABA supplementation; cited from earlier work
[10] = test system: influenza; settings: ABA treatment; cited from earlier work
[11] = uninfected and P. yoelii-infected mice
[12] = uninfected and infected mice, day 11 post-infection
[13] = P. yoelii infection, day 11 post-infection

## CC1=CC(=O)CC(C)(C)[C@@]1(O)/C=C/C(C)=C\C(=O)O (racemic) [ABA, (2Z,4E)-5-[(1S)-1-hydroxy-2,6,6-trimethyl-4-oxocyclohex-2-en-1-yl]-3-methylpenta-2,4-dienoic acid]
[1]; 10 nM ABA in bloodmeal
  reduction of infection prevalence in A. stephensi: 30%
[1]; 10 nM ABA, among infected mosquitoes (controls 2.1)
  mean oocysts per midgut: 1.6
[1]; 100 nM ABA in bloodmeal
  reduction of infection prevalence in A. stephensi: 36%
[2]
  parasite death in mosquito midgut (Pfs16 and Pfs25 expression): increased parasite death
[3]
  MAPK phosphorylation: does not alter
[4]; P. falciparum-infected mosquitoes
  mosquito lifespan: does not alter
[4]; five lifespans, weekly uninfected bloodmeal
  mosquito median survival: does not alter
[4]; mosquitoes, weekly ABA-supplemented uninfected bloodmeal, replicates 1-5
  Median Survival: 23 days and 16 days (2×) and 21 days and 18 days
[4]; nutrient stress: maintained on 3% sucrose solution
  mosquito lifespan: does not alter
[5]; C57Bl/6 mice, three cohorts
  parasitemia: significantly reduces
[5]; caspase-1 knockout mice
  parasitemia: no effect
[6]; P. yoelii-infected mice
  alanine transaminase, Mean: 30.23 U/L
  albumin, Mean: 2.25 g/dL
  aspartate transaminase, Mean: 194.7 U/L
  creatine, Mean: 0.18 mg/dL
  phosphorus, Mean: 8.43 mg/dL
  total bilirubin, Mean: 0.26 mg/dL
  total protein, Mean: 4.12 g/dL
[6]; day 11 post-infection
  liver function (blood urea nitrogen levels in plasma): improved
[6]; [11]
  plasma indicators of organ health: no effect
[6]; [12]
  glucose levels in mouse plasma: does not alter
  insulin levels in mouse plasma: does not alter
[6]; uninfected mice
  alanine transaminase, Mean: 176.8 U/L
  albumin, Mean: 3.23 g/dL
  aspartate transaminase, Mean: 1437 U/L
  blood urea nitrogen, Mean: 28.76 mg/dL
  creatine, Mean: 0.21 mg/dL
  phosphorus, Mean: 10.07 mg/dL
  total bilirubin, Mean: 0.06 mg/dL
  total protein, Mean: 4.67 g/dL
[7]; [13]
  percentage of basophils in whole blood: partially rescues decrease
  percentage of eosinophils in whole blood: partially rescues decrease
[7]; P. yoelii-infected mice
  % RDW, Mean: 34.95%
  % hematocrit, Mean: 21.00%
  % lymphocytes, Mean: 69.22%
  % monocytes, Mean: 5.31%
  % neutrophils, Mean: 22.8%
  MCHC, Mean: 34.73 g/dL
  MCV, Mean: 55.20 fL
  MPV, Mean: 6.23 fL
  RBCs, Mean: 3.83 M/ul
  WBC, Mean: 31.90 K/uL
  hemoglobin, Mean: 7.28 g/dL
  platelets, Mean: 234.3 K/ul
[7]; [11]
  complete blood counts: no effect
[7]; uninfected mice
  % RDW, Mean: 17.02%
  % hematocrit, Mean: 38.48%
  % lymphocytes, Mean: 66.56%
  % monocytes, Mean: 11.71%
  % neutrophils, Mean: 17.53%
  MCHC, Mean: 32.72 g/dL
  MCV, Mean: 43.14 fL
  MPV, Mean: 5.74 fL
  RBCs, Mean: 8.94 M/ul
  WBC, Mean: 5.73 K/uL
  hemoglobin, Mean: 12.56 g/dL
  platelets, Mean: 573.0 K/ul
[8]
  levels of parasite-specific IgG and IgG1 in mouse plasma: increased
[9]
  epithelial erosion and leukocyte infiltration: reduced
[10]
  vascular infiltrates: decreased
  viral load: no effect
